According to patent US9371358B2 (priority 2010, dated 2016):
Like-named read-outs stand apart in the source and are kept apart here.

Legend:
[1] = test system: human colon cancer cell line (HT-29); assay: MTT cell proliferation assay, cytotoxicity and GI50, HT-29; settings: read-out: Cytotoxic activity (GI50 Values) HT-29
Protocol: Cell Culture and Cytotoxicity:
(§1) Human prostate cancer cell line (PC-3) and human colon cancer cell line (HT-29) were obtained from the German Collection of Microorganisms. All cell lines were cultivated under conditions recommended by their respective depositors. […] For PC-3 cell lines 500 cells per well and for HT-29 cell lines 1500-2000 cells per well were seeded overnight into 96-well cell culture plates (TPP, Trasadingen, Switzerland) and exposed to serial dilutions of each inhibitor for 3 days. Formazan salt formation was measured at 490 nm using an enzyme-linked immunosorbent assay (ELISA) reader (DYNEX technologies MRX TC II). From each compound four independent replicates were prepared.

[2] = test system: Human prostate cancer cell line (PC-3); assay: MTT cell proliferation assay, cytotoxicity and GI50, PC-3; settings: read-out: Cytotoxic activity (GI50 Values) PC-3
Protocol: Cell Culture and Cytotoxicity:
as §1

Row | SMILES | GI50 ([1]; Homo sapiens, HT-29, 72 h) [nM] | GI50 ([2]; Homo sapiens, PC-3, 72 h) [nM] | GI50 ([1]; HT-29 cells, exposed 3 days, MTT, four independent replicates) [nM] | GI50 ([2]; PC-3 cells, exposed 3 days, MTT, four independent replicates) [nM]
1 | CCCCNC(=O)CN(C(=O)[C@@H](NC(=O)[C@H]1CCCCN1C)[C@@H](C)CC)[C@H](C[C@@H](OC(C)=O)c1nc(C(=O)N[C@@H](Cc2ccccc2)C[C@H](C)C(=O)O)cs1)C(C)C [tubugi A] | 0.14 | 0.23 |  | 
2 | CC[C@H](C)[C@H](NC(=O)[C@H]1CCCCN1C)C(=O)N(CC(=O)NC(C)C)[C@H](C[C@@H](OC(C)=O)c1nc(C(=O)N[C@@H](Cc2ccccc2)C[C@H](C)C(=O)O)cs1)C(C)C [tubugi B] | 0.34 | 0.29 |  | 
3 | CC[C@H](C)[C@H](NC(=O)[C@H]1CCCCN1C)C(=O)N(COC(=O)CC(C)C)[C@H](C[C@@H](OC(C)=O)c1nc(C(=O)N[C@@H](Cc2ccc(O)cc2)C[C@H](C)C(=O)O)cs1)C(C)C [tubulysin A, reference compound] |  |  | 0.32 | 0.21
4 | CC(=O)O[C@H]1C(=O)[C@@]2(C)[C@H]([C@H](OC(=O)c3ccccc3)[C@]3(O)C[C@H](OC(=O)[C@H](O)[C@@H](NC(=O)c4ccccc4)c4ccccc4)C(C)=C1C3(C)C)[C@]1(OC(C)=O)CO[C@@H]1C[C@@H]2O [taxol, reference compound] | 5.3 | 7.2 |  | 
5 | CCCCNC(=O)C(C)N(C(=O)[C@@H](NC(=O)[C@H]1CCCCN1C)[C@@H](C)CC)[C@H](C[C@@H](OC(C)=O)c1nc(C(=O)N[C@@H](Cc2ccccc2)C[C@H](C)C(=O)O)cs1)C(C)C (stereo partly shown) [tubugi D] | 0.56 | 0.22 |  | 
